Read-outs that look alike come from different tables or passages of the source.
Experiments:
[1] = Population PK model of evobrutinib; type: in vivo, human; conditions: for Increase of bioavailability with food compared with when fasted: population PK model covariate effect
[2] = system: patients with RMS; type: in vivo, human
[3] = data not shown for high-fat or moderate-fat meal; internal report; cited from earlier work
[4] = system: patients with RMS; conditions: cited from earlier work; for Annualized relapse rate (ARR): 75 mg b.i.d.
[5] = system: patients with RMS; conditions: 75 mg q.d. while fasted; over 24 weeks, maintained through week 48; cited from earlier work
[6] = between-participant variability, final PK model

Patients exceeding AUC0-24,SS > 400 ng/ml h ([1]; 75 mg b.i.d. treatment arm in the phase II study): all patients
ω^2 ALAG, Estimate (RSE %) [1, 6]: 0.317 (83.3)
ω^2 CL/F, Estimate (RSE %) [1, 6]: 0.257 (18.1)
ω^2 D1 fasted, Estimate (RSE %) [1, 6]: 0.784 (38.3)
ω^2 D1 fed, Estimate (RSE %) [1, 6]: 0.784 (38.3)
ω^2 Q/F, Estimate (RSE %) [1, 6]: 1.25 (18.2)
ω^2 V2/F, Estimate (RSE %) [1, 6]: 0.566 (32.9)
ω^2 V3/F, Estimate (RSE %) [1, 6]: 1.82 (15.2)
Cov CL/F + ALAG, Estimate (RSE %) ([1]; covariance, final PK model): 0.0572 (120)
Cov Q/F + V3/F, Estimate (RSE %) ([1]; covariance, final PK model): 1.09 (17.3)
Residual variability: Additive error ([1]; final PK model): 0.272 ng/mL
Residual variability: Proportional error ([1]; final PK model): 0.509
ALAG (lag time) ([1]; final PK model, week 48): 0.197 h
K a (absorption rate constant) ([1]; final PK model, week 48): 0.793 h⁻¹
V3/F (apparent volume of distribution of the peripheral compartment) ([1]; final PK model, week 48): 385 L
CL/F (apparent clearance) ([1]; final PK model, week 48, value for healthy participants): 269 L/h
Vd/F ([1]; human, in vivo): 50.8 L
AUC(0-t) ([1]; human, in vivo, 75 mg): 835 ng·h/mL
Cmax ([1]; human, in vivo, 75 mg): 168 ng/mL
Increase of bioavailability with food compared with when fasted [1]: about 50%
Increase of bioavailability with food compared with when fasted ([1]; listed as Evobrutinib): 49%
Compound: C=CC(=O)N1CCC(CNc2ncnc(N)c2-c2ccc(Oc3ccccc3)cc2)CC1 [evobrutinib, Evobrutinib]
exp(B1), level of ARR for high values of the AUC ([2]; ARR versus exposure model estimate): 0.11
Mean ARR ([2]; highest three exposure quintiles (starting at an AUC of 356 ng/ml h)): ≤ 0.14
Increase of bioavailability by dosing with food [3]: about 50%
Clinical efficacy on any end points compared with placebo ([4]; 25 mg q.d.): did not show clinical efficacy
Annualized relapse rate (ARR) ([4]; 48-week double-blind period): 0.11
Annualized relapse rate (ARR) ([4]; 108-week period (48-week double-blind plus 60-week open-label extension)): 0.12
Total cumulative number of T1 Gd+ lesions compared with placebo [5]: reduction

From PMC9747124 (Clinical and Translational Science, 2022)
